# Results: US9815839B2, “N-(1-(substituted-phenyl)ethyl)-9H-purin-6-amines as PI3K inhibitors” (Incyte Corporation, priority 2010, dated 2017)
# Counter-ions that a name gives are not always drawn.
# Biological target: T1, PI3Kδ (p110δ/p85α) (Homo sapiens, UniProt O00329)
# T1 construct: purchased Millipore (Bedford, Mass.)
# Experiment: PI3Kδ scintillation proximity assay
# Type: biochemical
# Conditions: 20 μM ATP, 4 nM PI3Kδ
# Text: Example A: PI3Kδ Scintillation Proximity Assay
# Materials: [γ-^33P]ATP (10 mCi/mL) was purchased from Perkin-Elmer (Waltham, Mass.). Lipid kinase substrate, D-myo-Phosphatidylinositol 4,5-bisphosphate (PtdIns(4,5)P2)D (+)-sn-1,2-di-O-octanoylglyceryl, 3-O-phospho linked (PIP2), CAS 204858-53-7, was purchased from Echelon Biosciences (Salt Lake City, Utah). PI3Kδ (p110δ/p85α) was purchased from Millipore (Bedford, Mass.). ATP, MgCl2, DTT, EDTA, MOPS and CHAPS were purchased from Sigma-Aldrich (St. Louis, Mo.). Wheat Germ Agglutinin (WGA) YSi SPA Scintillation Beads was purchased from GE healthcare life sciences (Piscataway, N.J.).
# The kinase reaction was conducted in polystyrene 384-well matrix white plate from Thermo Fisher Scientific in a final volume of 25 μL. Inhibitors were first diluted serially in DMSO and added to the plate wells before the addition of other reaction components. The final concentration of DMSO in the assay was 0.5%. The PI3K assays were carried out at room temperature in 20 mM MOPS, pH 6.7, 10 mM MgCl2, 5 mM DTT and CHAPS 0.03%. Reactions were initiated by the addition of ATP, the final reaction mixture consisted of 20 μM PIP2,20 μM ATP, 0.2 μCi [γ-^33P] ATP, 4 nM PI3Kδ. Reactions were incubated for 210 minutes and terminated by the addition of 40 μL SPA beads suspended in quench buffer: 150 mM potassium phosphate pH 8.0, 20% glycerol. 25 mM EDTA, 400 µM ATP. The final concentration of SPA beads is 1.0 mg/mL. After the plate sealing, plates were shaken overnight at room temperature and centrifuged at 1800 rpm for 10 minutes, the radioactivity of the product was determined by scintillation counting on Topcount (Perkin-Elmer). IC50 determination was performed by fitting the curve of percent control activity versus the log of the inhibitor concentration using the GraphPad Prism 3.0 software.
# T1 sequence (O00329 whole entry, species assumed): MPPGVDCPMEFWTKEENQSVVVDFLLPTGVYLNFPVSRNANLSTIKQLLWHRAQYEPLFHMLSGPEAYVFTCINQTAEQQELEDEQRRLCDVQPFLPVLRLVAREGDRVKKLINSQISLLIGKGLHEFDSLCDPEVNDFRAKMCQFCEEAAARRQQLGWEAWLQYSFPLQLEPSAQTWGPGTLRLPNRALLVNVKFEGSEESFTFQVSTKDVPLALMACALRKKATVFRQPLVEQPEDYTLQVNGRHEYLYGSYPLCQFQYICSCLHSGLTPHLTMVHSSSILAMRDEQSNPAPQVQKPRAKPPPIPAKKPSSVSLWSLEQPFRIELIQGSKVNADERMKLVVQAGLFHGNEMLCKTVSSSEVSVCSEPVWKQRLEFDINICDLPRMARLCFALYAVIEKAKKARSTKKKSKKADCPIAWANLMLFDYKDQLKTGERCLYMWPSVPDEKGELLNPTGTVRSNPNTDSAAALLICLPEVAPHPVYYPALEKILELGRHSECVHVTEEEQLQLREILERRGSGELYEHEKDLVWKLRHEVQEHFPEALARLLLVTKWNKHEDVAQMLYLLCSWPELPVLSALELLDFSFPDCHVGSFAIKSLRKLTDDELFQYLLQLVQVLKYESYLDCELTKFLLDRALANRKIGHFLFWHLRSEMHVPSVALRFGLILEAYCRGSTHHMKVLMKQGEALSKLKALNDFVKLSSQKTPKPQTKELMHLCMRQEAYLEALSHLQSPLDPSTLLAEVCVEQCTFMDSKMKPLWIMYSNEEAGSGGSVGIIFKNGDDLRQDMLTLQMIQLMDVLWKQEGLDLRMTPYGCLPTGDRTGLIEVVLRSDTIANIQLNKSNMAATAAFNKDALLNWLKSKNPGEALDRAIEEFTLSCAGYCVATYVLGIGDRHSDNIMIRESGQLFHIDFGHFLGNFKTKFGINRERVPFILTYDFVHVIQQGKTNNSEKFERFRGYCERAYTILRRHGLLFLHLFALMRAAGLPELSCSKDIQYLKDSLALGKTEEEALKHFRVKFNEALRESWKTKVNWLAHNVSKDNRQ
# T1 sequence (P27986 whole entry partner, species assumed): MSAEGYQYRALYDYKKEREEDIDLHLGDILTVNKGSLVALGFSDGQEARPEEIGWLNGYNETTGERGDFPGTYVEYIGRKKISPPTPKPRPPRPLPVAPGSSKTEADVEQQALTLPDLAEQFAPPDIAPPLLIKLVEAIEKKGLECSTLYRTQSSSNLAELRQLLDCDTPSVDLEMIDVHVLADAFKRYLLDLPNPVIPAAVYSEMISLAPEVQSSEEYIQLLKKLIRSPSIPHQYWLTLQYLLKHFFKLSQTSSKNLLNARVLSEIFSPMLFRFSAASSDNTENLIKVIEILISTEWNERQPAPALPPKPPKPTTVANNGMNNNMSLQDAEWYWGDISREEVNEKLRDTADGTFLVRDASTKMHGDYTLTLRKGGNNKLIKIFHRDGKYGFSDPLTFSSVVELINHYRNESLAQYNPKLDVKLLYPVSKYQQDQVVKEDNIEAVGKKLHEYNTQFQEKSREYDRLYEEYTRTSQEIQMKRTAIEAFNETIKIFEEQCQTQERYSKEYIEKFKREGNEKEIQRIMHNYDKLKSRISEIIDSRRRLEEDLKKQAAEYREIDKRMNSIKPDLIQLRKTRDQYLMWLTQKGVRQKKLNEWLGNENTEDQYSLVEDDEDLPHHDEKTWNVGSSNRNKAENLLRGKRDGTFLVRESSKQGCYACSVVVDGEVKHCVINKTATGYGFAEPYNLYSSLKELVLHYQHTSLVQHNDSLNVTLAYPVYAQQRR
row,IC50,Compound
1,< 50 nM,"COc1c(C(C)Nc2ncnc3[nH]cnc23)cc(Cl)c(C)c1-c1cnn(C2(CC#N)CC(C#N)C2)c1 (single isomer, unassigned) [Example 54, 3-(4-{3-chloro-6-methoxy-2-methyl-5-[1-(9H-purin-6-ylamino)ethyl]phenyl}-1H-pyrazol-1-yl)-3-(cyanomethyl)cyclobutanecarbonitrile]"
2,< 50 nM,"COc1cncc(-c2c(C)c(Cl)cc(C(C)Nc3ncnc4[nH]cnc34)c2OC)c1 (single isomer, unassigned) [Example 113, N-{1-[5-Chloro-2-methoxy-3-(5-methoxypyridin-3-yl)-4-methylphenyl]ethyl}-9H-purin-6-amine]"
3,< 50 nM,"COc1c(C(C)Nc2ncnc3[nH]cnc23)cc(Cl)c(C)c1C1CNC(=O)C1 (single isomer, unassigned) [Example 192, 4-{3-chloro-6-methoxy-2-methyl-5-[1-(9H-purin-6-ylamino)ethyl]phenyl}pyrrolidin-2-one]"
4,< 50 nM,"COc1c(C(C)Nc2ncnc3[nH]cnc23)cc(Cl)c(C)c1C1CC(=O)N(C)C1 (single isomer, unassigned) [Example 193, 4-{3-chloro-6-methoxy-2-methyl-5-[1-(9H-purin-6-ylamino)ethyl]phenyl}-1-methylpyrrolidin-2-one]"
5,< 50 nM,"CCOc1c(C(C)Nc2ncnc3[nH]cnc23)cc(Cl)c(C#N)c1C1CN(C(C)C)C1 (single isomer, unassigned) [Example 214, 6-Chloro-3-ethoxy-2-(1-isopropylazetidin-3-yl)-4-[1-(9H-purin-6-ylamino)ethyl]benzonitrile bis(trifluoroacetate)]"
6,500 to 1000 nM,"CC(Nc1ncnc2[nH]cnc12)c1cc(Cl)c(CC#N)c(C#N)c1-c1cccc(F)c1 (centres unmarked) [Example 4, 4-Chloro-3-(cyanomethyl)-3′-fluoro-6-[1-(9H-purin-6-ylamino)ethyl]biphenyl-2-carbonitrile]"
7,< 50 nM,"COc1c(C(C)Nc2ncnc3[nH]cnc23)cc(Cl)c(C)c1-c1cncc(C)c1 (centres unmarked) [Example 55, N-{1-[5-chloro-2-methoxy-4-methyl-3-(5-methylpyridin-3-yl)phenyl]ethyl}-9H-purin-6-amine]"
8,< 50 nM,"COc1c(C(C)Nc2ncnc3[nH]cnc23)cc(Cl)c(C)c1-c1ccc(N)nc1 (centres unmarked) [Example 57, N-{1-[3-(6-aminopyridin-3-yl)-5-chloro-2-methoxy-4-methylphenyl]ethyl}-9H-purin-6-amine]"
9,50 to 100 nM,"COc1c(C(C)Nc2ncnc3[nH]cnc23)cc(Cl)c(C)c1-c1ccc(C#N)nc1 (centres unmarked) [Example 58, 5-{3-chloro-6-methoxy-2-methyl-5-[1-(9H-purin-6-ylamino)ethyl]phenyl}pyridine-2-carbonitrile]"
10,100 to 250 nM,"COc1c(C(C)Nc2ncnc3[nH]cnc23)cc(Cl)c(C)c1-c1ccc(OC(C)C)nc1 (centres unmarked) [Example 59, N-{1-[5-chloro-3-(6-isopropoxypyridin-3-yl)-2-methoxy-4-methylphenyl]ethyl}-9H-purin-6-amine]"
11,< 50 nM,"COc1c(C(C)Nc2ncnc3[nH]cnc23)cc(Cl)c(C)c1-c1ccc(F)c(C(N)=O)c1 (centres unmarked) [Example 61, 3′-Chloro-4-fluoro-6′-methoxy-2′-methyl-5′-[1-(9H-purin-6-ylamino)ethyl]biphenyl-3-carboxamide]"
12,< 50 nM,"COc1c(C(C)Nc2ncnc3[nH]cnc23)cc(Cl)c(C)c1-c1ccc(C(N)=O)c(F)c1 (centres unmarked) [Example 62, 3′-Chloro-3-fluoro-6′-methoxy-2′-methyl-5′-[1-(9H-purin-6-ylamino)ethyl]biphenyl-4-carboxamide]"
13,< 50 nM,"COc1c(C(C)Nc2ncnc3[nH]cnc23)cc(Cl)c(C)c1-c1ccc(C(=O)N2CC(C#N)C2)c(F)c1 (centres unmarked) [Example 63, 1-({3′-Chloro-3-fluoro-6′-methoxy-2′-methyl-5′-[1-(9H-purin-6-ylamino)ethyl]biphenyl-4-yl}carbonyl)azetidine-3-carbonitrile]"
14,< 50 nM,"CCNC(=O)c1ccc(-c2c(C)c(Cl)cc(C(C)Nc3ncnc4[nH]cnc34)c2OC)cc1F (centres unmarked) [Example 64, 3′-chloro-N-ethyl-3-fluoro-6′-methoxy-2′-methyl-5′-[1-(9H-purin-6-ylamino)ethyl]biphenyl-4-carboxamid]"
15,< 50 nM,"COc1c(C(C)Nc2ncnc3[nH]cnc23)cc(Cl)c(C)c1-c1ccc(C(=O)N(C)C)c(F)c1 (centres unmarked) [Example 65, 3′-chloro-3-fluoro-6′-methoxy-N,N,2′-trimethyl-5′-[1-(9H-purin-6-ylamino)ethyl]biphenyl-4-carboxamide]"
16,< 50 nM,"COc1c(C(C)Nc2ncnc3[nH]cnc23)cc(Cl)c(C)c1-c1ccc(C(=O)N2CCCC2)c(F)c1 (centres unmarked) [Example 66, N-{1-[5-chloro-3′-fluoro-2-methoxy-6-methyl-4′-(pyrrolidin-1-ylcarbonyl)biphenyl-3-yl]ethyl}-9H-purin-6-amine]"
17,250 to 500 nM,"COc1c(C(C)Nc2ncnc3[nH]cnc23)cc(Cl)c(C)c1-c1cc(F)cc(Cl)c1 (centres unmarked) [Example 85, N-[1-(3′,5-dichloro-5′-fluoro-2-methoxy-6-methylbiphenyl-3-yl)ethyl]-9H-purin-6-amine]"
18,250 to 500 nM,"COc1c(C(C)Nc2ncnc3[nH]cnc23)cc(Cl)c(C)c1-c1ccc(OC(F)(F)F)cc1 (centres unmarked) [Example 90, N-{1-[5-chloro-2-methoxy-6-methyl-4′-(trifluoromethoxy)biphenyl-3-yl]ethyl}-9H-purin-6-amine]"
19,250 to 500 nM,"COc1c(C(C)Nc2ncnc3[nH]cnc23)cc(Cl)c(C)c1-c1ccc(Cl)cc1 (centres unmarked) [Example 99, N-[1-(4′,5-dichloro-2-methoxy-6-methylbiphenyl-3-yl)ethyl]-9H-purin-6-amine]"
20,100 to 250 nM,COc1ccc(-c2c(C)c(Cl)cc(C(C)Nc3ncnc4[nH]cnc34)c2OC)cc1 (centres unmarked) [Example 101]
21,100 to 250 nM,"COc1ccc(-c2c(C)c(Cl)cc(C(C)Nc3ncnc4[nH]cnc34)c2OC)cc1C (centres unmarked) [Example 102, N-[1-(5-chloro-2,4′-dimethoxy-3′,6-dimethylbiphenyl-3-yl)ethyl]-9H-purin-6-amine]"
22,< 50 nM,COc1cccc(-c2c(C)c(Cl)cc(C(C)Nc3ncnc4[nH]cnc34)c2OC)c1 (centres unmarked) [Example 103]
23,< 50 nM,"COc1c(C(C)Nc2ncnc3[nH]cnc23)cc(Cl)c(C)c1-c1cccc(NC(C)=O)c1 (centres unmarked) [Example 104, N-{3′-chloro-6′-methoxy-2′-methyl-5′-[1-(9H-purin-6-ylamino)ethyl]biphenyl-3-yl}acetamide]"
24,< 50 nM,"COc1c(C(C)Nc2ncnc3[nH]cnc23)cc(Cl)c(C)c1-c1ccc(F)c(F)c1 (centres unmarked) [Example 105, N-[1-(5-chloro-3′,4′-difluoro-2-methoxy-6-methylbiphenyl-3-yl)ethyl]-9H-purin-6-amine]"
25,< 50 nM,"COc1c(C(C)Nc2ncnc3[nH]cnc23)cc(Cl)c(C)c1-c1cncc(F)c1 (centres unmarked) [Example 108, N-{1-[5-Chloro-3-(5-fluoropyridin-3-yl)-2-methoxy-4-methylphenyl]ethyl}-9H-purin-6-amine]"
26,< 50 nM,"COc1c(C(C)Nc2ncnc3[nH]cnc23)cc(Cl)c(C)c1-c1cncc(C#N)c1 (centres unmarked) [Example 114, 5-{3-chloro-6-methoxy-2-methyl-5-[1-(9H-purin-6-ylamino)ethyl]phenyl}nicotinonitrile]"
27,< 50 nM,"COc1c(C(C)Nc2ncnc3[nH]cnc23)cc(Cl)c(C)c1-c1cnc(N)nc1 (centres unmarked) [Example 115, N-{1-[3-(2-aminopyrimidin-5-yl)-5-chloro-2-methoxy-4-methylphenyl]ethyl}-9H-purin-6-amine]"
28,< 50 nM,"COc1c(C(C)Nc2ncnc3[nH]cnc23)cc(Cl)c(C)c1-c1cnn(CC#N)c1 (centres unmarked) [Example 117, (4-{3-Chloro-6-methoxy-2-methyl-5-[1-(9H-purin-6-ylamino)ethyl]phenyl}-1H-pyrazol-1-yl)acetonitrile trifluoroacetate]"
29,100 to 250 nM,"CCOc1cccc(-c2c(C)c(F)cc(C(C)Nc3ncnc4[nH]cnc34)c2OC)c1 (centres unmarked) [Example 119, N-[1-(3′-ethoxy-5-fluoro-2-methoxy-6-methylbiphenyl-3-yl)ethyl]-9H-purin-6-amine]"
30,50 to 100 nM,"COc1c(C(C)Nc2ncnc3[nH]cnc23)cc(F)c(C)c1-c1ccc(C(=O)NC2CC2)cc1 (centres unmarked) [Example 120, N-cyclopropyl-3′-fluoro-6′-methoxy-2′-methyl-5′-[1-(9H-purin-6-ylamino)ethyl]biphenyl-4-carboxamide]"

row,Compound,IC50
1,1-{3′-chloro-3-fluoro-6′-methoxy-2′-methyl-5′-[1-(9H-purin-6-ylamino)ethyl]biphenyl-4-yl]carbonyl)piperidin-4-ol [Example 69],< 50 nM
2,"COc1c(C(C)Nc2ncnc3[nH]cnc23)cc(F)c(C)c1-c1ccc(S(C)(=O)=O)cc1 (centres unmarked) [Example 118, N-{1-[5-Fluoro-2-methoxy-6-methyl-4′-(methylsulfonyl)biphenyl-3-yl]ethyl}-9H-purin-6-amine]",50 to 100 nM
